According to ChEMBL document CHEMBL1201862, “PubChem BioAssay data set” (2004):
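These data come from cells grown in 96-well plates and exposed to compound for 48 hours at five concentrations. GI50 = concentration required for 50% inhibition of growth.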 Calls of active or inactive are those of the source. No stated cut-off is given here; in the data, active = GI50 up to about 1.1 µM and inactive = higher.

Key:
Assay in all cases: inhibition of tumour cell growth, NCI panel, 48 h
SK-MEL-5 = tested on: SK-MEL-5
PC-3 = tested on: PC-3
SW-620 = tested on: SW-620
OVCAR-3 = tested on: OVCAR-3
MDA-N = tested on: MDA-N
MCF7 = tested on: MCF7
SNB-75 = tested on: SNB-75
SK-MEL-28 = tested on: SK-MEL-28
786-0 = tested on: 786-0
OVCAR-8 = tested on: OVCAR-8
NCI-H23 = tested on: NCI-H23
SNB-19 = tested on: SNB-19
DU-145 = tested on: DU-145
CCRF-CEM = tested on: CCRF-CEM
HCT-116 = tested on: HCT-116
K562 = tested on: K562
ACHN = tested on: ACHN
RXF 393 = tested on: RXF 393
IGROV-1 = tested on: IGROV-1
CAKI-1 = tested on: CAKI-1

Measured: GI50

COC(=O)C1(Cc2ccc3c(c2)CCC3)Cc2cc3c(cc2C1)CCC3
inactive: SK-MEL-5 27 µM | PC-3 46 µM | SW-620 75.7 µM | OVCAR-3 45.6 µM | MDA-N 40.6 µM | MCF7 22.5 µM | SNB-75 46.6 µM | SK-MEL-28 60.1 µM | 786-0 51.4 µM | OVCAR-8 54.2 µM | NCI-H23 27.3 µM | SNB-19 68.1 µM | DU-145 71.4 µM | CCRF-CEM 19.3 µM | HCT-116 35.1 µM | K562 30.5 µM | ACHN 38.3 µM | RXF 393 23.9 µM | IGROV-1 80 µM

Nc1ccc2nc3c(nc2c1)C(=O)c1ccccc1-3
inactive: SK-MEL-5 > 100 µM | PC-3 > 100 µM | SW-620 > 100 µM | OVCAR-3 > 100 µM | MDA-N > 100 µM | MCF7 > 100 µM | SNB-75 > 100 µM | SK-MEL-28 > 100 µM | 786-0 75 µM | OVCAR-8 > 100 µM | NCI-H23 > 100 µM | SNB-19 > 100 µM | DU-145 > 100 µM | CCRF-CEM 84.3 µM | HCT-116 > 100 µM | K562 > 100 µM | ACHN > 100 µM | RXF 393 > 100 µM | IGROV-1 > 100 µM

Cc1ccccc1Nc1cn(COCc2ccccc2)c(=O)[nH]c1=O
inactive: SK-MEL-5 55 µM | CAKI-1 > 100 µM | PC-3 38.4 µM | SW-620 > 100 µM | OVCAR-3 79.8 µM | MDA-N > 100 µM | MCF7 > 100 µM | SK-MEL-28 > 100 µM | 786-0 > 100 µM | NCI-H23 56.5 µM | SNB-19 > 100 µM | DU-145 80.4 µM | CCRF-CEM 91.6 µM | HCT-116 49.7 µM | K562 > 100 µM | ACHN > 100 µM | RXF 393 > 100 µM | IGROV-1 33 µM

CCOC(=O)C(SCCO)C(C(=O)OCC)n1cnc2c(=O)[nH]c(NC(C)=O)nc21 (stereo unspecified)
inactive: SK-MEL-5 > 100 µM | CAKI-1 > 100 µM | PC-3 > 100 µM | SW-620 > 100 µM | OVCAR-3 > 100 µM | MDA-N > 100 µM | MCF7 > 100 µM | SNB-75 > 100 µM | SK-MEL-28 > 100 µM | 786-0 > 100 µM | OVCAR-8 > 100 µM | NCI-H23 > 100 µM | SNB-19 > 100 µM | DU-145 > 100 µM | CCRF-CEM > 100 µM | HCT-116 > 100 µM | K562 > 100 µM | ACHN > 100 µM | IGROV-1 > 100 µM

O=[N+]([O-])/C(C(Cl)=C(Cl)Cl)=C(/Nc1ccccc1)Sc1ccccc1
inactive: SK-MEL-5 20.3 µM | CAKI-1 13.5 µM | PC-3 18.5 µM | SW-620 25.1 µM | OVCAR-3 15.7 µM | MDA-N 24.9 µM | MCF7 28.5 µM | SK-MEL-28 19.7 µM | 786-0 21.7 µM | OVCAR-8 17.7 µM | NCI-H23 18.7 µM | SNB-19 17.5 µM | DU-145 21.1 µM | CCRF-CEM 16.8 µM | HCT-116 18.5 µM | K562 20.6 µM | ACHN 19.1 µM | RXF 393 19.8 µM | IGROV-1 19.9 µM

C=C(C)c1nc(C#N)c(N)o1
inactive: SK-MEL-5 > 100 µM | CAKI-1 > 100 µM | PC-3 > 100 µM | SW-620 > 100 µM | OVCAR-3 > 100 µM | MDA-N > 100 µM | MCF7 > 100 µM | SK-MEL-28 > 100 µM | 786-0 > 100 µM | OVCAR-8 > 100 µM | NCI-H23 > 100 µM | SNB-19 > 100 µM | DU-145 > 100 µM | CCRF-CEM > 100 µM | HCT-116 > 100 µM | K562 > 100 µM | ACHN > 100 µM | RXF 393 > 100 µM | IGROV-1 36.3 µM

O=C(O)c1c(-c2nccc3ccccc23)[nH]c(-c2ccccc2)c1S(=O)(=O)O
inactive: SK-MEL-5 > 100 µM | CAKI-1 > 100 µM | PC-3 > 100 µM | SW-620 > 100 µM | OVCAR-3 > 100 µM | MDA-N > 100 µM | MCF7 > 100 µM | SNB-75 > 100 µM | SK-MEL-28 > 100 µM | 786-0 > 100 µM | OVCAR-8 > 100 µM | NCI-H23 > 100 µM | SNB-19 > 100 µM | DU-145 > 100 µM | CCRF-CEM > 100 µM | HCT-116 > 100 µM | ACHN > 100 µM | RXF 393 > 100 µM | IGROV-1 > 100 µM

CC(C(=O)NCNC(=O)c1ccccc1)C(=O)NCc1ccccc1 (stereo unspecified)
inactive: SK-MEL-5 > 100 µM | CAKI-1 > 100 µM | PC-3 > 100 µM | SW-620 > 100 µM | MDA-N > 100 µM | MCF7 > 100 µM | SNB-75 > 100 µM | 786-0 > 100 µM | OVCAR-8 > 100 µM | NCI-H23 > 100 µM | SNB-19 > 100 µM | DU-145 > 100 µM | CCRF-CEM > 100 µM | HCT-116 > 100 µM | ACHN > 100 µM | RXF 393 > 100 µM | IGROV-1 > 100 µM

O=C(Nc1ccn(C2CCC(CO)O2)c(=O)n1)c1ccccc1 (stereo unspecified)
inactive: SK-MEL-5 > 100 µM | CAKI-1 > 100 µM | PC-3 > 100 µM | SW-620 > 100 µM | MDA-N > 100 µM | MCF7 > 100 µM | SNB-75 79.6 µM | SK-MEL-28 > 100 µM | 786-0 > 100 µM | OVCAR-8 > 100 µM | NCI-H23 > 100 µM | SNB-19 > 100 µM | DU-145 > 100 µM | CCRF-CEM 34.1 µM | HCT-116 > 100 µM | K562 > 100 µM | ACHN > 100 µM | RXF 393 > 100 µM | IGROV-1 > 100 µM

CSC1=NN(c2ccccc2)C(=O)C1=C(SC)SC
inactive: SK-MEL-5 16.3 µM | CAKI-1 20 µM | PC-3 15.1 µM | SW-620 33.5 µM | OVCAR-3 42.6 µM | MDA-N 30.7 µM | MCF7 19.2 µM | SNB-75 27.4 µM | SK-MEL-28 30.5 µM | 786-0 24.2 µM | OVCAR-8 21.5 µM | NCI-H23 19.1 µM | SNB-19 23.2 µM | DU-145 29.9 µM | CCRF-CEM 14.2 µM | HCT-116 16.7 µM | K562 20.1 µM | RXF 393 13.9 µM
